Experiment in all cases: NCI tumour cell line growth inhibition, 48 h
Experiment [1] relates to CCRF-CEM.
Experiment [2] concerns SW-620.
The subject of experiment [3] is MCF7.
In experiment [4] the test system is SN12C.
Experiment [5] concerns SF-539.
For experiment [6], the system named is SR.
Experiment [7] deals with Malme-3M.
Experiment [8] relates to U-251.
Experiment [9] deals with OVCAR-8.
In experiment [10] the test system is SK-MEL-5.
The test system of experiment [11] is HOP-92.
Experiment [12] concerns DU-145.
Experiment [13] relates to HOP-62.
Experiment [14] deals with RPMI-8226.
Experiment [15] deals with TK-10.
For experiment [16], the system named is NCI-H226.
Experiment [17] has as its system M14.
Experiment [18] concerns NCI-H522.
Experiment [19] relates to SF-295.
Experiment [20] has as its system KM12.

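These data come from cells grown in 96-well plates and exposed to compound for 48 hours at five concentrations. Here, GI50 denotes the concentration required for 50% inhibition of growth.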 Calls of active or inactive are those of the source. Cut-off read from the data, not from the text of the source: active = GI50 up to about 1.1 µM and inactive = higher. Where only a bound is given, the exact number is not on record here.

On to `CC(C)(C)C1CCC2c3c([nH]c4ccccc34)C3C(=O)N(c4ccc([N+](=O)[O-])cc4)C(=O)C3C2C1` (stereo not given), for which the GI50 was 8.51 µM (inactive) in experiment [1]; 21 µM (inactive) in experiment [2]; 2.79 µM (inactive) in [3]; 4.86 µM (inactive) in experiment [4]; 20.7 µM (inactive) in [5]; 3.27 µM (inactive) in experiment [6]. Also, the GI50 in experiment [7] was 20.5 µM (inactive); in [8], 15.6 µM (inactive); in experiment [9] it was 19 µM (inactive); in experiment [10], 12.2 µM (inactive); in experiment [11], 2.7 µM (inactive); in [12] it was 26.7 µM (inactive). Further, the GI50 in [13] is 16.4 µM (inactive); in experiment [14], 27 µM (inactive); in experiment [15], 21.3 µM (inactive); in experiment [16] it was 13.9 µM (inactive); in experiment [17], 23.9 µM (inactive); in [18] it was 12.5 µM (inactive). Also, the GI50 in [19] is 27.2 µM (inactive); in experiment [20], 1.77 µM (inactive).
In the case of `Nc1ccc(C(=O)CC(N)C(=O)O)cc1O` (stereo not given), the GI50 in [1], in [2], in experiment [3], in [4], in [5] and in experiment [6] was > 100 µM (inactive) in each case. Besides, the GI50 in experiment [7], in [8], in experiment [9], in [10], in experiment [11] and in experiment [12] was > 100 µM (inactive) throughout. In addition, the GI50 in experiment [13], in experiment [14], in [15], in [16], in [17] and in experiment [18] was > 100 µM (inactive) each time. Besides, the GI50 in experiment [19] and in experiment [20] was > 100 µM (inactive) throughout.
On to `CC(CCC=O)CCOCc1ccccc1` (stereo not given), for which the GI50 is > 48.5 µM (inactive) in experiment [1]; > 80.7 µM (inactive) in [2]; 2.8 µM (inactive) in experiment [3]; > 100 µM (inactive) in experiment [4]; > 100 µM (inactive) in experiment [5]; > 54.5 µM (inactive) in experiment [6]. The GI50 is > 100 µM (inactive) in [7]; > 100 µM (inactive) in [8]; 98.4 µM (inactive) in [9]; 37.4 µM (inactive) in experiment [10]; > 100 µM (inactive) in [11]; > 100 µM (inactive) in [12]. For the same molecule, the GI50 in experiment [13] is > 100 µM (inactive); in [14], 53.7 µM (inactive); in experiment [15], > 42 µM (inactive); in experiment [16], > 100 µM (inactive); in experiment [17], > 100 µM (inactive); in [18], 34.8 µM (inactive). In addition, the results for the GI50 in experiment [19] and in experiment [20] were > 100 µM (inactive) and > 57.1 µM (inactive), respectively.
Regarding `CN(/N=C/c1ccccc1O)c1ccc2ccccc2n1`, the GI50 is 12.9 µM (inactive) in [1]; 42.3 µM (inactive) in experiment [2]; 2.61 µM (inactive) in [3]; 32.4 µM (inactive) in experiment [4]; 22.6 µM (inactive) in experiment [5]; 19.7 µM (inactive) in [6]. In addition, the GI50 in experiment [7] was 21.6 µM (inactive); in experiment [8] it was 16.3 µM (inactive); in [9], 33.8 µM (inactive); in experiment [10] it was 32.5 µM (inactive); in [11] it was 35.3 µM (inactive); in [12] it was 20.1 µM (inactive). Moreover, the GI50 in experiment [13] is 16.4 µM (inactive); in [14], 35.6 µM (inactive); in [15], 22.2 µM (inactive); in experiment [16], 78 µM (inactive); in experiment [17] it was 27.1 µM (inactive); in [18], 24.9 µM (inactive). Besides, the values for the GI50 in experiment [19] and in experiment [20] were 16.2 µM (inactive) and 21.3 µM (inactive), respectively.
On to `COc1ccc2c(c1)CN([C@@H](C)[C@H]1CC[C@H]3[C@@H]4CC[C@H]5C[C@@H](O)CC[C@]5(C)[C@H]4CC[C@]13C)CO2`, for which the GI50 in experiment [1] was 1.85 µM (inactive); in experiment [2], 2.92 µM (inactive); in experiment [3], 3.7 µM (inactive); in [4], 8.57 µM (inactive); in experiment [5], 1.59 µM (inactive); in experiment [6] it was 0.321 µM (active). Further, the GI50 in [7] was 1.53 µM (inactive); in [8], 1.62 µM (inactive); in experiment [9], 2.71 µM (inactive); in [10], 1.69 µM (inactive); in experiment [11], 1.74 µM (inactive); in [12], 4.68 µM (inactive). Besides, the GI50 in [13] was 2 µM (inactive); in experiment [14], 0.541 µM (active); in experiment [15], 2.79 µM (inactive); in [16], 7.36 µM (inactive); in [17], 1.57 µM (inactive); in experiment [18], 1.95 µM (inactive). For the same molecule, the GI50 in experiment [19] is 1.45 µM (inactive); in experiment [20], 1.75 µM (inactive).
With `CCCCCCCCCCCCC/C=C(/COCC[N+](C)(C)C)OC(C)=O.CCCCCCCCCCCCCC/C(=C/OCC[N+](C)(C)C)OC(C)=O`, the GI50 in [1] is 1.76 µM (inactive); in experiment [2], 2.92 µM (inactive); in [3], 1.9 µM (inactive); in experiment [4], 3.01 µM (inactive); in [5] it was 1.85 µM (inactive); in experiment [6], 1.57 µM (inactive). Further, the GI50 is 5.68 µM (inactive) in experiment [7]; 1.19 µM (inactive) in experiment [8]; 0.944 µM (active) in [9]; 2.54 µM (inactive) in experiment [10]; 1.16 µM (inactive) in [11]; 4.97 µM (inactive) in [12]. The GI50 in [13] was 1.65 µM (inactive); in experiment [14], 1.3 µM (inactive); in [15], 1.48 µM (inactive); in experiment [16], 1.57 µM (inactive); in experiment [17], 2.5 µM (inactive); in experiment [18] it was 1.87 µM (inactive). Besides, the GI50 in experiment [19] is 0.92 µM (active); in experiment [20] it was 1.46 µM (inactive).

The record behind these values is ChEMBL document CHEMBL1201862, “PubChem BioAssay data set” (2004).
